Measurements taken from patent US20250353873A1, “COMPOUNDS AND METHODS FOR MODULATING APOE EXPRESSION” (Ionis Pharmaceuticals, Inc., priority 2024, published 2025).
pIC50: −log10 of the molar value. Strand notation (5' to 3'): a small letter for the sugar, then the base; units joined by * are phosphorothioate-linked, units joined directly phosphodiester-linked; [ ] holds rarer units or linkages, { } end groups; capitals alone tell only the bases. [ms] = mesyl phosphoramidate linkage; e = 2'-O-(2-methoxyethyl) (MOE); k = constrained ethyl (cEt); [5mC] = 5-methylcytosine; d = 2'-deoxy (DNA)

Columns and labels:
human APOE RNA [1] = experiment: Dose-dependent inhibition of human APOE RNA in HepG2 cells, electroporation, 50,000 cells per well, RT-PCR normalized to GAPDH (Example 4, Tables 8-10); assay type: cell-based; conditions: for APOE RNA (% UTC) 1,280 nM: 24-hour treatment, 1,280 nM; for APOE RNA (% UTC) 3,200 nM: 24-hour treatment, 3,200 nM; for APOE RNA (% UTC) 8,000 nM: 24-hour treatment, 8,000 nM; for APOE RNA (% UTC) 20,000 nM: 24-hour treatment, 20,000 nM
How it was run: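 Readout is percent APOE RNA versus untreated controls, measured by RT-PCR (primer probe set RTS3073) and normalized to human GAPDH. Modified oligonucleotides were delivered by electroporation at varying doses into HepG2 cells plated at 50,000 per well.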

human APOE RNA [2] = experiment: Potency (dose response, ED50) in APOE C57BL/6NTac-Apoeem7250 knock-in mice, 4 weeks (Example 14); assay type: in vivo; conditions: for ED 50 (μg) Cortex / ED 50 (μg) Spinal Cord: single ICV bolus, GraphPad Prism 10
Method: Modified oligonucleotides described above were tested in the APOE C57BL/6NTac-Apoeem7250 knock-in mouse model described above.
APOE C57BL/6NTac-Apoeem7250 knock-in mice were divided into groups of 3-4 mice each. A group of 3-4 mice received a single ICV bolus with PBS as a negative control.
Four weeks post treatment, mice were sacrificed, and RNA was extracted from cortical brain tissue and spinal cord for quantitative real-time RT-PCR analysis of RNA expression of […] using human primer probe set RTS3073 (described herein above). APOE RNA levels were normalized to mouse Ppia. Mouse Ppia was amplified using primer probe set m_cyclo24 (described herein above). Results are presented as percent human APOE RNA relative to the amount of APOE RNA in PBS treated animals, (% control). N.C. indicates values that were not calculated. Each experiment is identified in separate tables below.
The half maximal effective dose (ED50) of each modified oligonucleotide was calculated using GraphPad Prism 10 software (GraphPad Software, San Diego, CA).

[3] = HepG2 cells, electroporation, 24-hour treatment, 5 nM, Table 8
[4] = HepG2 cells, electroporation, 24-hour treatment, 13 nM, Table 8
[5] = HepG2 cells, electroporation, 24-hour treatment, 33 nM, Table 8
[6] = HepG2 cells, electroporation, 24-hour treatment, 82 nM, Table 8
[7] = HepG2 cells, electroporation, 24-hour treatment, 205 nM, Table 8
[8] = HepG2 cells, electroporation, 24-hour treatment, 512 nM, Table 8
[9] = HepG2 cells, electroporation, Table 8
[10] = reduction of human APOE RNA, HepG2 cells, electroporation, 24-hour treatment, Table 8

Substance	APOE RNA (% UTC) 5 nM (human APOE RNA [1]; [3])	APOE RNA (% UTC) 13 nM (human APOE RNA [1]; [4])	APOE RNA (% UTC) 33 nM (human APOE RNA [1]; [5])	APOE RNA (% UTC) 82 nM (human APOE RNA [1]; [6])	APOE RNA (% UTC) 205 nM (human APOE RNA [1]; [7])	APOE RNA (% UTC) 512 nM (human APOE RNA [1]; [8])	APOE RNA (% UTC) 1,280 nM (human APOE RNA [1]; [9])	APOE RNA (% UTC) 3,200 nM (human APOE RNA [1]; [9])	APOE RNA (% UTC) 8,000 nM (human APOE RNA [1]; [9])	APOE RNA (% UTC) 20,000 nM (human APOE RNA [1]; [9])	pIC50 (human APOE RNA [1]; [10])	APOE RNA (% control) Cortex (human APOE RNA [2]; ICV dose 10 μg)	APOE RNA (% control) Cortex (human APOE RNA [2]; ICV dose 30 μg)	APOE RNA (% control) Cortex (human APOE RNA [2]; ICV dose 100 μg)	APOE RNA (% control) Cortex (human APOE RNA [2]; ICV dose 300 μg)	APOE RNA (% control) Cortex (human APOE RNA [2]; ICV dose 700 μg)	ED 50 (μg) Cortex (human APOE RNA [2])	APOE RNA (% control) Spinal Cord (human APOE RNA [2]; ICV dose 10 μg)	APOE RNA (% control) Spinal Cord (human APOE RNA [2]; ICV dose 30 μg)	APOE RNA (% control) Spinal Cord (human APOE RNA [2]; ICV dose 100 μg)	also measured
1785598: modified oligonucleotide complementary to human APOE RNA (k[5mC]*kT*kT*dG[ms]dG[ms]dT[ms]dG[ms]dA[ms]dA[ms]dT*d[5mC]*dT*dT*dT*dA*dT[ms]kT*kA*dA[ms]kA; antisense) [compound 1785598]	112 % UTC	109 % UTC	110 % UTC	95 % UTC	70 % UTC	73 % UTC	33 % UTC	21 % UTC	8 % UTC	9 % UTC	6.08	104 % control	84 % control	60 % control	37 % control	23 % control	175.4 µg	97 % control	70 % control	65 % control	APOE RNA (% control) Spinal Cord (human APOE RNA [2]; ICV dose 300 μg): 60 % control; APOE RNA (% control) Spinal Cord (human APOE RNA [2]; ICV dose 700 μg): 41 % control; ED 50 (μg) Spinal Cord (human APOE RNA [2]): 416.7 µg
1778111: modified oligonucleotide complementary to human APOE RNA (eA*e[5mC]eTeTeG*kG*dT*dG[ms]dA[ms]dA*dT*d[5mC]*dT*dT*dT*dA[ms]eTeT*eA*eA; antisense) [compound 1778111]	75 % UTC	96 % UTC	73 % UTC	61 % UTC	53 % UTC	44 % UTC	27 % UTC	17 % UTC	12 % UTC	9 % UTC	6.62										
1757575 (eA*e[5mC]eTeT*kG*kG*dT*dG[ms]dA[ms]dA[ms]dT*d[5mC]*dT*dT*dT*dA[ms]kT*eT*eA*eA; antisense) [Compound 1757575]												100 % control	82 % control	88 % control	51 % control	30 % control	337.5 µg	82 % control	48 % control	40 % control	APOE RNA (% UTC) (human APOE RNA [1]; 5 nM, HepG2, electroporation, 16-hour treatment): 84 % UTC; APOE RNA (% UTC) (human APOE RNA [1]; 13 nM, HepG2, electroporation, 16-hour treatment): 80 % UTC; APOE RNA (% UTC) (human APOE RNA [1]; 33 nM, HepG2, electroporation, 16-hour treatment): 87 % UTC; APOE RNA (% UTC) (human APOE RNA [1]; 82 nM, HepG2, electroporation, 16-hour treatment): 78 % UTC; APOE RNA (% UTC) (human APOE RNA [1]; 205 nM, HepG2, electroporation, 16-hour treatment): 81 % UTC; APOE RNA (% UTC) (human APOE RNA [1]; 512 nM, HepG2, electroporation, 16-hour treatment): 51 % UTC; APOE RNA (% UTC) (human APOE RNA [1]; 1,280 nM, HepG2, electroporation, 16-hour treatment): 44 % UTC; APOE RNA (% UTC) (human APOE RNA [1]; 3,200 nM, HepG2, electroporation, 16-hour treatment): 37 % UTC; APOE RNA (% UTC) (human APOE RNA [1]; 8,000 nM, HepG2, electroporation, 16-hour treatment): 25 % UTC; APOE RNA (% UTC) (human APOE RNA [1]; 20,000 nM, HepG2, electroporation, 16-hour treatment): 15 % UTC; pIC50 (human APOE RNA [1]; HepG2, electroporation, 16-hour treatment): 6.03; APOE RNA (% control) Spinal Cord (human APOE RNA [2]; ICV dose 300 μg): 28 % control; APOE RNA (% control) Spinal Cord (human APOE RNA [2]; ICV dose 700 μg): 51 % control; ED 50 (μg) Spinal Cord (human APOE RNA [2]): 84.6 µg
1778128: modified oligonucleotide complementary to human APOE RNA (eA*e[5mC]eTeTkGkG*dT*dG[ms]dA[ms]dA*dT*d[5mC]*dT*dT*dT*dA[ms]kTeT*eA*eA; antisense) [compound 1778128]	81 % UTC	83 % UTC	66 % UTC	53 % UTC	39 % UTC	28 % UTC	22 % UTC	9 % UTC	8 % UTC	5 % UTC	7.00										
1785617: modified oligonucleotide complementary to human APOE RNA (k[5mC]*dT[ms]dT[ms]kG*dG[ms]kT*dG[ms]dA[ms]dA[ms]dT[ms]d[5mC]*dT*dT*dT*dA*dT*kT*kA*dA[ms]kA; antisense) [compound 1785617]	91 % UTC	104 % UTC	93 % UTC	83 % UTC	93 % UTC	50 % UTC	47 % UTC	18 % UTC	27 % UTC	11 % UTC	6.02										
1778130: modified oligonucleotide complementary to human APOE RNA (eA*e[5mC]eTeTeG*kG*dT*dG[ms]dA[ms]dA*dT*d[5mC]*dT*dT*dT*dA[ms]kTkT*eA*eA; antisense) [compound 1778130]	100 % UTC	106 % UTC	93 % UTC	75 % UTC	61 % UTC	44 % UTC	26 % UTC	19 % UTC	10 % UTC	6 % UTC	6.40	123 % control	100 % control	69 % control	74 % control	37 % control	502.4 µg	88 % control	35 % control	27 % control	APOE RNA (% control) Spinal Cord (human APOE RNA [2]; ICV dose 300 μg): 22 % control; APOE RNA (% control) Spinal Cord (human APOE RNA [2]; ICV dose 700 μg): 32 % control; ED 50 (μg) Spinal Cord (human APOE RNA [2]): 35.9 µg
1693105: 6-10-4 MOE gapmer CTTGGTGAATCTTTATTAAA, linkages sosssszzzssssszssss (e[5mC]*eTeT*eG*eG*eT*dG[ms]dA[ms]dA[ms]dT*d[5mC]*dT*dT*dT*dA[ms]dT*eT*eA*eA*eA) [compound 1693105]												100 % control	85 % control	77 % control	59 % control	48 % control	573.3 µg	71 % control	71 % control	47 % control	APOE RNA (% control) Spinal Cord (human APOE RNA [2]; ICV dose 300 μg): 49 % control; APOE RNA (% control) Spinal Cord (human APOE RNA [2]; ICV dose 700 μg): 61 % control; ED 50 (μg) Spinal Cord (human APOE RNA [2]): 892.8 µg
1778131: modified oligonucleotide complementary to human APOE RNA (eA*e[5mC]eTeTeGkG*dT*dG[ms]dA[ms]dA*dT*d[5mC]*dT*dT*dT*dA[ms]kTkT*eA*eA; antisense) [compound 1778131]	104 % UTC	117 % UTC	101 % UTC	78 % UTC	71 % UTC	50 % UTC	35 % UTC	28 % UTC	7 % UTC	5 % UTC	6.20	115 % control	105 % control	61 % control	37 % control	29 % control	216.5 µg	79 % control	64 % control	36 % control	APOE RNA (% control) Spinal Cord (human APOE RNA [2]; ICV dose 300 μg): 40 % control; APOE RNA (% control) Spinal Cord (human APOE RNA [2]; ICV dose 700 μg): 34 % control; ED 50 (μg) Spinal Cord (human APOE RNA [2]): 94.0 µg
